According to patent US20230061858A1, “TREATMENT WITH SITE SPECIFIC HER2 ANTIBODY-DRUG CONJUGATES” (Pfizer Inc., priority 2019, published 2023):
Where a SMILES comes first, the peptide text is derived from it. [ ]: non-standard residue; d: D form. The star is where a group is joined. Dolaproine = CO[C@@H]([C@@H]1CCCN1)[C@@H](C)C(=O)O; Dil = CC[C@H](C)[C@H](NC)[C@@H](CC(=O)O)OC; Doe = c1ccc(C[C@H](N*)c2nccs2)cc1; Aib = CC(C)(N)C(=O)O

Assay: Phase 1 pharmacokinetic assessment, Cycle 1 serum concentrations
Assay type: in vivo, human
Method: Pharmacokinetic assessments included quantifying the serum concentrations of T(kK183C+K290C)-vc0101 ADC (measured as conjugated payload), total antibody, and unconjugated payload using validated bioanalytical assays on blood samples collected before treatment and during the study. Specifically, total antibody concentrations were measured using ELISA method, T(kK183C+K290C)-vc0101 ADC concentrations were measured as conjugated payload using a hybrid LC-MS/MS method, and unconjugated payload concentrations will be measured using an LC-MS/MS method. For preliminary PK assessment, mean serum concentration-time profiles of T(kK183C+K290C)-vc0101 ADC were generated for each dose cohort; Noncompartmental PK parameters were estimated from Cycle 1 concentration-time data using nominal sampling time. For T(kK183C+K290C)-vc0101 ADC and total antibody, PK parameters including the maximum plasma concentration (Cmax), time to maximum plasma concentration (Tmax), and area under the plasma concentration versus time curve (AUCinf, AUCτ), clearance (CL), volume of distribution at steady state (Vss), terminal half-life (t1/2), and accumulation ratio (Rac) were calculated. For unconjugated payload, PK parameters including Cmax, Tmax, AUCinf, AUCτ, t1/2, and Rac, were calculated.

Compound: CC[C@H](C)[C@@H]([C@@H](CC(=O)N1CCC[C@H]1[C@H](OC)[C@@H](C)C(=O)N[C@@H](Cc1ccccc1)c1nccs1)OC)N(C)C(=O)[C@@H](NC(=O)C(C)(C)N)C(C)C [unconjugated payload, 2-methylalanyl-N-[(3R,4S,5S)-3-methoxy-1-{(2S)-2-[(1R,2R)-1-methoxy-2-methyl-3-oxo-3-{[(1S)-2-phenyl-1-(1,3-thiazol-2-yl)ethyl]amino}propyl]pyrrolidin-1-yl}-5-methyl-1-oxoheptan-4-yl]-N-methyl-L-valinamide] (H-[Aib]V[Dil][Dolaproine]-Doe)
- exposure following IV administration of PF-06804103 (0.15-5.0 mg/kg, Cycle 1): Dose-dependent increases
- Serum concentrations compared with ADC (Cycle 1, after IV PF-06804103): substantially lower than those of ADC
